Results on 1 molecule are retold here after US6559158B1, “Use of methylnaltrexone and related compounds to treat chronic opioid use side affects” (UR Labs, Inc., priority 1997, dated 2003).

In the experiment the test system is morphine-induced changes in oral-cecal transit time. The experiment in a line: Example 4: morphine-induced delay of oral-cecal transit time in subjects given opioids non-chronically. Conditions: placebo plus 0.05 mg/kg morphine, 12 subjects, mean±SD; baseline 104.6±31.1; p<0.01. The experiment is classed as in vivo, human.

Description: Sessions were separated by at least 1 week. Each session lasted approximately 7 hours, and the subjects received one of three injections: (1) placebo plus placebo, (2) placebo plus 0.05 mg/kg morphine, or (3) 0.45 mg/kg methylnaltrexone plus 0.05 mg/kg morphine. Injection I was given at the first session, and the subjects were blinded to the medication. Injections 2 and 3 were given in a random order, and the subjects and observers were blinded to the medication. Injection assignments were prepared by random selection on a computer and were sealed in envelopes.
After completion of the above three injections, we asked six of the subjects, beginning with those who had completed the study last, to return for a fourth injection (0.45 mg/kg methylnaltrexone plus 0.1 mg/kg morphine). This was done to evaluate the effects of methylnaltrexone with a higher does of morphine.
Results of the hydrogen breath test after different injections were analyzed with the use of the Wilcoxon matched-pairs signed-rank test, with p<0.05 considered to be statistically significant.

For `CN1CC[C@]23c4c5ccc(O)c4O[C@H]2[C@@H](O)C=C[C@H]3[C@H]1C5.O=S(=O)(O)O` [Morphine, morphine sulfate], the oral-cecal transit time was 163.3 ± 39.8 min.
